Measurements from patent US7067545B1, “Remedies for spinocerebellar ataxia and compositions for treating spinocerebellar ataxia” (Meiji Seika Kaisha Ltd., priority 1998, dated 2006).
Read-outs that look alike come from different tables or passages of the source.

Tests used:
[1] = mouse, in vivo, cited from earlier work
drug induced ataxia mice = test: Effect on drug induced (cytosine arabinoside) ataxia mice, open-field test; assay type: in vivo; details: for Falling Index (falling score/movement score) / Movement Score: 30 min after administration, observed 30 min, mean ± standard error
Method: Ataxia mice prepared by repeated administration of cytosine arabinoside 50 mg/kg into male mice, 1, 2 and 3-day old, respectively, were used at 6-7-week old in the experiments (Simada, M. et al. Arch. Neurol., 32, 555-559, 1975 and Matsui, K. et al. Exp. Anim., 32, 13-19, 1983).
Improving effects of drugs on ataxia were evaluated according to the methods of Yamamoto et al. (Yamamoto and Shimizu, Eur. J. Pharmacol. 1.66, 295-297, 1989) and Matsui et al. (Matsui et al. Eur. J. Pharmacol., 254, 295-297, 1994; Neurosci. Lett., 212, 115-118, 1996) as follows.
(§1) The open-field apparatus with a 70 cm square filed surrounded by a 15 cm high wall was used. The floor of the field was marked out into 49 equal grids (each grid 10 cm×10 cm). At 30 minutes after administration of drug intraperitoneally into mice, each mouse was placed in the field and was monitored for behavior for 30 minutes. Observed items were as follows. Numbers of crossing lines of the grids by mouse were set as “movement score” and numbers of slipping the hindlimbs were set as “falling score”. Each score was measured simultaneously. Ratio of both scores (falling score/movement score) is expressed as “falling index”.
Drugs used were D-serine ethyl ester, 10, 50 and 250 mg/kg, respectively, D-cycloserine, 2, 10 and 50 mg/kg, respectively, and L-serine ethyl ester, 250 mg/kg. Physiological saline was used as control. Each drug and saline were administered intraperitoneally.

[2] = test system: genetic mutant ataxia mice, reeler mice; test: Effect on genetic mutant ataxia mice (reeler mice), open-field test; assay type: in vivo; details: 250 mg/kg i.p., mean ± standard error
Method: as §1
Genetic mutant ataxia mice, reeler mice (Heckroth, J. A. et al. J. Comp. Neurol., 279, 546-555, 1989 and Hamburgh, Dev. Biol., 8, 165-185, 1963) were purchased from Jackson Laboratory (Bar Harbor, Me., USA). Homozygotes were obtained by mating of heterozygote pairs. The homozygote male mice, 6-7 weeks old, were used for the experiments.
Experimental method for evaluation of ataxia was performed as same as in example 1. In the drug administered group, D-serine ethyl ester 250 mg/kg was administered intraperitoneally. For control group, physiological saline was administered.

[3] = 10 mg/kg i.p., listed as D-Cycloserine
[4] = 50 mg/kg i.p., listed as D-Cycloserine
[5] = 50 mg/kg i.p., listed as D-Serine Ethyl ester
[6] = 250 mg/kg i.p., listed as D-Serine Ethyl ester

## N[C@@H]1CON=C1O [D-cycloserine]
[1]; ip
  LD50: approx. 2,900 mg/kg
[1]; iv
  LD50: approx. 1,800 mg/kg
[1]; po
  LD50: approx. 5,300 mg/kg
[1]; sc
  LD50: approx. 2,800 mg/kg
Drug induced ataxia mice; 2 mg/kg i.p.
  Falling Index (falling score/movement score): 0.80 ± 0.07
  Movement Score: 117 ± 54
Drug induced ataxia mice; 10 mg/kg i.p.
  Falling Index (falling score/movement score): Significant decrease
  Movement Score: no significant effect
Drug induced ataxia mice; [3]
  Falling Index (falling score/movement score): 0.69 ± 0.09
  Movement Score: 194 ± 71
Drug induced ataxia mice; 50 mg/kg i.p.
  Falling Index (falling score/movement score): Significant decrease
  Movement Score: no significant effect
Drug induced ataxia mice; [4]
  Falling Index (falling score/movement score): 0.62 ± 0.04
  Movement Score: 286 ± 98
Drug induced ataxia mice; below 50 mg/kg (i.p.) in mice
  improved action on ataxia: dose dependent manner

## CCOC(=O)[C@H](N)CO [D-serine ethyl ester]
[2]
  Falling Index (falling score/movement score): Improved effect on ataxia
  Movement Score: No effect
[2]; listed as D-Serine Ethyl ester
  Falling Index (falling score/movement score): 0.24 ± 0.05
  Movement Score: 232 ± 66
Drug induced ataxia mice; 10 mg/kg i.p.
  Falling Index (falling score/movement score): 0.88 ± 0.09
  Movement Score: 386 ± 113
Drug induced ataxia mice; 50 mg/kg i.p.
  Falling Index (falling score/movement score): Significant decrease
  Movement Score: no significant effect
Drug induced ataxia mice; [5]
  Falling Index (falling score/movement score): 0.66 ± 0.08
  Movement Score: 366 ± 96
Drug induced ataxia mice; 250 mg/kg i.p.
  Falling Index (falling score/movement score): Significant decrease
  Movement Score: no significant effect
Drug induced ataxia mice; [6]
  Falling Index (falling score/movement score): 0.56 ± 0.06
  Movement Score: 412 ± 99

## CCOC(=O)[C@@H](N)CO [L-serine ethyl ester]
Drug induced ataxia mice; 250 mg/kg i.p.
  Falling Index (falling score/movement score): No improved action on ataxia
  Movement Score: 129 ± 27
Drug induced ataxia mice; 250 mg/kg i.p., listed as L-Serine Ethyl ester
  Falling Index (falling score/movement score): 0.80 ± 0.06
